Laboratory results as given in patent US20190322698A1, “WATER-SOLUBLE ALLOPR[…] USE THEREOF” (JIANGSU NHWALUOKANG PHARMACEUTICAL RESEARCH AND DEVELOPMENT …, priority 2016, published 2019).

Legend:
[1] = Stability test of the compounds in a 5% aqueous glucose solution; format: physicochemical; conditions: room temperature; for Dissociation percent (%): 5% glucose solution, about 0.5 mg/ml, HPLC; for Solution: appearance of the about 0.5 mg/ml solution in 5% glucose
Experimental: Each of the compounds to be tested was weighed (1 mg), placed in a 5% glucose solution (2 ml) and formulated into a solution having a concentration of about 0.5 mg/ml. The solution stood at room temperature, and was sampled at several time points (0.5 h, 1 h, 2 h, 3 h and 5 h).

[2] = Solubility of the compounds in water (25° C.); format: physicochemical
[3] = Dissociation test of the compounds in whole blood of rats; format: in vitro ADME; conditions: rat whole blood, 37° C., HPLC
Experimental: Each of the compounds to be tested was weighed (1 mg), placed in water (2 ml), and formulated into a solution having a concentration of about 0.5 mg/ml as a stock solution for further use. Whole blood of rats (0.45 ml) was taken and placed in a 2 ml EP tube, which was placed in a 37° C. water bath for preheating for 20 seconds. Then the stock solution of the compound (50 μL) was added quickly. After a homogeneous mixing, the EP tube was placed in a 37° C. water bath, and time counting was initiated. Acetonitrile (1 ml) was injected immediately at predetermined time points (1 min, 3 min, 5 min, 15 min). The solution was centrifuged for 5 min (15000 rpm), filtered with a 0.22 μm filtration membrane and subjected to HPLC detection, and the results were given below: […]

Structure (SMILES)	Dissociation percent (%) ([1]; 0 h)	Dissociation percent (%) ([1]; 0.5 h)	Dissociation percent (%) ([1]; 1 h)	Dissociation percent (%) ([1]; 2 h)	Dissociation percent (%) ([1]; 3 h)	Dissociation percent (%) ([1]; 5 h)	Solution [1]	Solubility [2] [µg/mL]	Dissociation percent (%) ([3]; 1 min)	Dissociation percent (%) ([3]; 3 min)	Dissociation percent (%) ([3]; 5 min)	Dissociation percent (%) ([3]; 15 min)
CC(=O)C1CCC2C3CCC4CC(OC(=O)C(F)C(=O)[O-])CCC4(C)C3CCC12C.[Na+] (stereo not drawn) [Compound 10]	0.02	0.14	0.21	0.36	0.51	0.86	Clear	>400	39.78	52.28	72.31	100
CC(=O)C1CCC2C3CCC4CC(OC(=O)C(F)CC(=O)[O-])CCC4(C)C3CCC12C.[Na+] (stereo not drawn) [Compound 11]	0.02	0.11	0.19	0.32	0.49	0.79	Clear	>400	40.83	50.35	69.32	100
CC(=O)C1CCC2C3CCC4CC(OC(=O)C(F)CCOP(=O)([O-])[O-])CCC4(C)C3CCC12C.[Na+].[Na+] (stereo not drawn) [Compound 16]	0.02	0.13	0.21	0.41	0.62	0.93	Clear	>300	35.94	47.88	66.47	94.56
